From patent publication US20230087118A1, “IMIDAZO[1,2-a][sequence] DERIVATIVES AND THEIR USE IN THE TREATMENT OF DISEASE” (priority 2019, published 2023) come the findings set out here.

The IC50 is the midpoint of a concentration-inhibition curve. High values mean weaker potency, low ones greater potency.

Where a name gives a salt, the structure may show the parent alone.

One assay has as its target T1, IRAK4 (Homo sapiens, UniProt Q9NWZ3).
T1 sequence (Q9NWZ3 1-460): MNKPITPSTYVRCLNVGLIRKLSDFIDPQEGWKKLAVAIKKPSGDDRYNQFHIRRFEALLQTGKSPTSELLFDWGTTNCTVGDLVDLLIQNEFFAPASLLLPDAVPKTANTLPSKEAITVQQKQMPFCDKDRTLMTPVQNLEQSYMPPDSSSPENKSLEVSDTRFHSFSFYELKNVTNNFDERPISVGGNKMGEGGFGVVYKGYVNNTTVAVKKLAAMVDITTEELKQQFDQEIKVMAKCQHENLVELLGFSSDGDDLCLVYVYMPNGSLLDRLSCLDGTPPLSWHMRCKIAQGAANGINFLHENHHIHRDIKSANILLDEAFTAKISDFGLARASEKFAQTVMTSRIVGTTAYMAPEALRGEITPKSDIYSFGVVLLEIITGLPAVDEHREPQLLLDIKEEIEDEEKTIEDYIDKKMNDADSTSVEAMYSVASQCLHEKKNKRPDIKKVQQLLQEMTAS
The experiment in a line: biochemical.
Settings: not given
On to `COc1ncccc1NC(=O)c1cn2cc(C34COC(C)(C3)C4)nc2c(OC2CCC2)n1` [Example 347, 8-Cyclobutoxy-N-(2-methoxypyridin-3-yl)-2-(1-methyl-2-oxabicyclo[2.1.1]hexan-4-yl)imidazo[1,2-a]pyrazine-6-carboxamide], for which inhibition was half-maximal at 0.0006 µM (IC50).

`Cc1ccn2ncc(NC(=O)c3cn4cc(C56COC(C)(C5)C6)nc4cc3OC(C)C)c2n1` [Example 263, 7-Isopropoxy-2-(1-methyl-2-oxabicyclo[2.1.1]hexan-4-yl)-N-(5-methylpyrazolo[1,5-a]pyrimidin-3-yl)imidazo[1,2-a]pyridine-6-carboxamide] returned an IC50 of 0.0002 µM.

Regarding `COc1cc2nc(C3CCOCC3)cn2cc1C(=O)Nc1ccn(CC2CC2)n1` [Example 184], the midpoint of inhibition, the IC50, lay at 0.208 µM.

Consider `CC(C)Oc1cc2nc([C@]34CC[C@](C)(C3)OC4)cn2cc1C(=O)Nc1cc(F)n(C)n1` (single isomer, unassigned) [Example 602], for which the IC50 stood at 0.0051 µM.

Take `CC(C)Oc1nc2nc(C34COC(CF)(C3)C4)cn2cc1C(=O)Nc1cccn(C(F)F)c1=O` [Example 381, N-(1-(difluoromethyl)-2-oxo-1,2-dihydropyridin-3-yl)-2-(1-(fluoromethyl)-2-oxabicyclo[2.1.1]hexan-4-yl)-7-isopropoxyimidazo[1,2-a]pyrimidine-6-carboxamide]: half-maximal inhibition (IC50) was put at 0.0004 µM.

Take `CC12CCC(c3cn4cc(C(=O)Nc5cccnc5OC(F)F)c(OC5CCC5)cc4n3)(CO1)C2` (stereo not drawn) [Example 536, 7-Cyclobutoxy-N-(2-(difluoromethoxy)pyridin-3-yl)-2-(1-methyl-2-oxabicyclo[2.2.1]heptan-4-yl)imidazo[1,2-a]pyridine-6-carboxamide]: the midpoint of inhibition, the IC50, lay at 0.0016 µM.

Take `CC(C)Oc1cc2nc(C34CCC(C)(C3)OC4)cn2cc1C(=O)Nc1cccc(C(F)F)n1` (stereo not drawn) [Example 243]: half-maximal inhibition (IC50) required 0.0002 µM.

`CC(C)Oc1cc2nc([C@]34CC[C@](C)(C3)OC4)cn2cc1C(=O)Nc1cnn2cccnc12` (single isomer, unassigned) [Example 614] returned an IC50 of 0.0002 µM.

`COc1ncccc1NC(=O)c1cn2cc([C@@]34CC[C@@](C)(C3)OC4)nc2nc1OC(C)C` (single isomer, unassigned) [Example 578] gave a 50% inhibitory concentration (IC50) of 0.0002 µM.

For the molecule `CCOc1nc(C(=O)Nc2cccc(C(F)F)n2)cn2cc(C34COC(C)(C3)C4)nc12` [Example 226], the 50% inhibitory concentration (IC50) was found to be 0.0024 µM.

For the molecule `COc1cc2nc(C34CCOC(C)(C3)C4)cn2cc1C(=O)Nc1cccc(C(F)F)n1` [Example 233], the IC50 stood at 0.0025 µM.

On to `CC(C)Oc1cc2nc(C34COC(C)(C3)C4)c(F)n2cc1C(=O)Nc1cccc2ncnn12` [Example 329, N-([1,2,4]triazolo[1,5-a]pyridin-5-yl)-3-fluoro-7-isopropoxy-2-(1-methyl-2-oxabicyclo[2.1.1]hexan-4-yl)imidazo[1,2-a]pyridine-6-carboxamide trifluoroactate], for which the half-inhibitory concentration (IC50) was found to be 0.0012 µM.

Staying with this assay, now noted: IRAK4 Biochemical Assay (1 mM ATP, 2 h) IC50 (μM), 1 mM ATP, 2 h, 100 pM IRAK4.
`CC(C)Oc1nc2nc(C34COC(C)(C3)C4)cn2cc1C(=O)Nc1cnn2cccnc12` [Example 307, 7-Isopropoxy-2-(1-methyl-2-oxabicyclo[2.1.1]hexan-4-yl)-N-(pyrazolo[1,5-a]pyrimidin-3-yl)imidazo[1,2-a]pyrimidine-6-carboxamide] yielded a 50% inhibitory concentration (IC50) of 0.0005 µM.

The molecule `CC(C)Oc1nc2nc(C34COC(C)(C3)C4)cn2cc1C(=O)Nc1cccc(C(C)(F)F)n1` [Example 356, N-(6-(1,1-difluoroethyl)pyridin-2-yl)-7-isopropoxy-2-(1-methyl-2-oxabicyclo[2.1.1]hexan-4-yl)imidazo[1,2-a]pyrimidine-6-carboxamide trifluoroacetate] had an IC50 of 0.0011 µM.

Consider `Cc1cnc2c(NC(=O)c3cn4cc(C56CC(C)(C5)OC6(C)C)nc4nc3OC(C)C)cnn2c1` [Example 311, 7-Isopropoxy-N-(6-methylpyrazolo[1,5-a]pyrimidin-3-yl)-2-(1,3,3-trimethyl-2-oxabicyclo[2.1.1]hexan-4-yl)imidazo[1,2-a]pyrimidine-6-carboxamide trifluoroacetate], for which the half-inhibitory concentration (IC50) turned out to be 0.0014 µM.
